How the values were obtained:
[1] = test system: mammalian macrophage membrane; assay: incorporation of choline into the mammalian macrophage membrane; format: cell-based
[2] = test system: chick peritoneal macrophages; conditions: Shigeura et al., 1975; cited from earlier work
Marek's disease = conditions: cited from earlier work
mice = assay: acute toxicity as measured by LD50 in mice; format: in vivo; conditions: compared with dapsone
lymphocyte = lymphocyte transformation; format: cell-based
methemoglobin = test system: methemoglobin; parameters: species or system mice; conditions: mouse, in vivo
[3] = cited from earlier work; for ability to alter the course of the disease / immune complexes as measured by rheumatoid factor titers: rheumatoid arthritis

| Compound | incorporation of choline into the mammalian macrophage membrane [1] | lymphocyte transformation (lymphocyte) | ability to alter the course of the disease [3] | immune complexes as measured by rheumatoid factor titers [3] | other results |
| --- | --- | --- | --- | --- | --- |
| NC(=O)Nc1ccc(S(=O)(=O)c2ccc(N)cc2)cc1 [1-[4-(4-sulfanilyl)phenyl]urea] | inhibit the incorporation | effect lymphocyte transformation |  |  | incorporation of chloline in chick peritoneal macrophages [2]: inhibit the incorporation; lesion incidence of poultry exposed to Marek's disease (Marek's disease): decreasing lesion incidence; mortality of poultry exposed to Marek's disease (Marek's disease): reducing mortality; acute toxicity as measured by LD50 (mice): less acutely toxic than dapsone; methemoglobin formation (methemoglobin): significantly less active in producing this toxic syndrome |
| CC(C)(S)[C@@H](N)C(=O)O [D-penicillamine] |  |  | can alter the course of the disease | reducing the immune complexes |  |
| Nc1ccc(S(=O)(=O)c2ccc(N)cc2)cc1 [Dapsone, 4,4'-diaminodiphenylsulfone] | inhibit the incorporation | effect lymphocyte transformation |  |  | effectiveness in treating rheumatoid arthritis ([3]; McConkey et al., 1976): effective in treating rheumatoid arthritis |
| CC(=O)Oc1ccccc1C(=O)O [aspirin] |  |  | unable to alter the course of the disease |  | symptomatic relief of the acute syndrome characterizing rheumatoid arthritis ([3]; in vivo): effective in providing symptomatic relief of the acute syndrome |
| gold |  |  | can alter the course of the disease | reducing the immune complexes |  |

Source: patent US4338334A, “1-[4-(4-Sulfanilyl)phenyl] urea and derivatives in compositions and methods of treating rheumatoid arthritis and immune complex diseases” (priority 1980, dated 1982)
